What was measured:
[1] = target: T1, AR with a 65 glutamine tract (disease associated) (Homo sapiens, UniProt P10275, INS80QQQQQQQQQQQQQQQQQQQQQQQQQQQQQQQQQQQQQQQQQQ); assay: Luciferase reporter assay in HEK293 cells transfected with ARQ65; assay type: cell-based; conditions: HEK293, AR 65 glutamines, FIG. 2C
T1 construct: expressed in transfected cells; host or cells: HEK293
Excerpt: (§1) Luciferase Reporter Assay. Cells were transfected using Lipofectamine Plus (Invitrogen) with a normalization plasmid (pRL-SV40, Promega) and an androgen responsive plasmid (MMTV-luciferase or PSA-luciferase) as described in Jones et al, ACS Chem Biol, 3(7):412-8 (2008), and, where indicated, with an shRNA plasmid targeting FOXM1 (adapted for mouse FOXM1 sequence targeting) a scrambled control shRNA plasmid, or ARQ24 or ARQ65 plasmids. Christensen et al, PLoS One, 8(1):e54556 (2013). The following day, cells and drugs were distributed to 96-well plates. 24 hours later, luciferase activity was assessed by a dual luciferase assay kit (Promega) on the Tecan plate reader. Samples were run in quadruplicates and a Student's t test was performed to determine significance, where p<0.05 was considered significant.
SBMA is caused by the activity of polyglutamine-expanded AR, and experiments were conducted to investigate the effects of thiostrepton against polyglutamine-expanded AR. AR-negative HEK293 cells were transfected with plasmids encoding AR with a 24 glutamine tract (normal) or with a 65 glutamine tract (disease associated). The polyglutamine-expanded AR was less transcriptionally active than the normal AR, as has been previously documented for such constructs. Kazemi-Esfarjani et al, Hum Mol Genet, 4:523-527 (1995).

[2] = target: T2, AR with a 112 glutamine tract (Homo sapiens, UniProt P10275, INS80QQQQQQQQQQQQQQQQQQQQQQQQQQQQQQQQQQQQQQQQQQQQQQQQQQQQQQQQQQQQQQQQQQQQQQQQQQQQQQQQQQQQQQQQQ); assay: Androgen-responsive luciferase reporter assay in PC12 (ARQ112) neuronal cells; assay type: cell-based; conditions: PC12 cells expressing AR with 112 glutamine tract, FIG. 2B
T2 construct: expressed in transfected cells; host or cells: PC12 (ARQ112), inducible
T2 sequence (P10275 with tags, fused parts or gaps with the stated changes): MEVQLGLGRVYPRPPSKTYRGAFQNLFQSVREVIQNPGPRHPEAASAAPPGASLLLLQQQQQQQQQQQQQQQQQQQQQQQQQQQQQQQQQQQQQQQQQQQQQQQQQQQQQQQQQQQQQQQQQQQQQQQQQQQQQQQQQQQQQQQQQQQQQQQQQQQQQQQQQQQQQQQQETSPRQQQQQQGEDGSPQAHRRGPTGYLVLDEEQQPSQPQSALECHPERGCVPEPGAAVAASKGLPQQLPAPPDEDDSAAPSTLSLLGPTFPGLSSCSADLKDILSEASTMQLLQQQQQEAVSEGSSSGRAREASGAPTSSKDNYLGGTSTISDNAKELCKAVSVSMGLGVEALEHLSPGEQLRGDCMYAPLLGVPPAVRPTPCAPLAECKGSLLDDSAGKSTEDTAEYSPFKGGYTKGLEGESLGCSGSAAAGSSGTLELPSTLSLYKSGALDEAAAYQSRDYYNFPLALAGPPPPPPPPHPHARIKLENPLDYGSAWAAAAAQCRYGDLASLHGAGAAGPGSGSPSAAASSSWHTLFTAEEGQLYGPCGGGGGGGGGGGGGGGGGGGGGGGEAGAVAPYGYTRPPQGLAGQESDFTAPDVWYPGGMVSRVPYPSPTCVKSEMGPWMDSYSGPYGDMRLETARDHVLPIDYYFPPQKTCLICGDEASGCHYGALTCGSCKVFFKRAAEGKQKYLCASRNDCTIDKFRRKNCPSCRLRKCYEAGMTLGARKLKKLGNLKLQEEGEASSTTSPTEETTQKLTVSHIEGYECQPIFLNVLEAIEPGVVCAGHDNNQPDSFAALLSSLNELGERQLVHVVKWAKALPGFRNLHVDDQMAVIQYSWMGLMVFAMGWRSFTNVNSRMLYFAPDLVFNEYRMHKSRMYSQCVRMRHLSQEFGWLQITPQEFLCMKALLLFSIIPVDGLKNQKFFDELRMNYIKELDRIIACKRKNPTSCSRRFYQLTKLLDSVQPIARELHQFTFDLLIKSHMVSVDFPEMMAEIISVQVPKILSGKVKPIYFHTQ
Excerpt: as §1
The ability of thiostrepton to inhibit AR activity in additional neuronal cells, including ReNcell CX cells PC12 cells, and in rat L6 skeletal muscle cells was examined (FIG. 2B). Donato et al, BMC Neurosci, 8:36 (2007); Yaffe, Proc Natl Acad Sci USA, 61(2):477-83 (1968).
SBMA is caused by the activity of polyglutamine-expanded AR, and experiments were conducted to investigate the effects of thiostrepton against polyglutamine-expanded AR. […]

[3] = system: AR activity in spinal cord; assay: RT-qPCR of androgen-regulated transcripts in spinal cord; assay type: in vivo, rat; conditions: rats, compared to control treatment, FIG. 5F
Experimental: Animals and Drugs. This study was carried out in strict accordance with the recommendations in the Guide for the Care and Use of Laboratory Animals of the National Institutes of Health. All experiments were performed under the IUCAC approval of City of Hope. Animals were purchased from Jackson Laboratory (Bar Harbor, Main). For the pilot pharmacokinetic experiment, nine male Sprague Dawley rats (n=3) were administered 1, 10, or 100 mg/kg intraperitoneal injections thrice per week for four weeks. One hour following the final dose, blood and spinal fluid were collected and analyzed by mass spectrometry. For the efficacy experiment, rats were divided into 3 groups (n=7) as follows: intact, castrated, and thiostrepton. […] Following a treatment period of 7 days, rats were euthanized and organs harvested, weighed and processed for quantitative RT-PCR.
qRT-PCR. The quantitative RT-PCR method has been described by Jones et al, ACS Chem Biol, 3(7):412-8 (2008). […] Differences between experimental (x) and control (y) samples were normalized to RPL19 transcript levels (androgen unresponsive) and determined with the following calculation: (2^(Ctsgene1-Ctygene1))/(2^(CtxRPL19-CtyRPL19)) One-way analysis of variance was applied to determine statistical significant among groups, where p<0.05 was considered significant. […]

FOXM1 = assay: Western blot of FOXM1 levels in GT1-7 CARY cells; assay type: cell-based, murine; conditions: relative to p84 loading control, FIG. 3C
Excerpt: Western Blot. Cell lysates was separated on a 6% SDS page gel and transferred to a nitrocellulose membrane. The membrane was blocked for one hour in 5% skim milk dissolved in TBS-T and probed with the following antibodies ([…]): FoxM1 (rabbit, GeneTex), AR: 441 (mouse, Santa Cruz Biotechnology), β-catenin (rabbit 9562, Cell Signaling Technology), p84 (mouse, GeneTex) and actin (mouse, Santa Cruz Biotechnology). Horse radish peroxidase linked secondary antibodies were used along with ECL reagents for visualization. Western blots were quantified using Quantity One analysis software (BioRad).
It has been previously reported that thiostrepton causes decreased levels of FOXM1. Hegde et al, Nat Chem, 3(9):725-31 (2011); Gartel, Front Oncol, 3:150 (2013). […] The nuclear association between FOXM1 and β-catenin increases the transcriptional activity of both factors. Zhang et al, Cancer Cell, 20(4):427-42 (2011). β-catenin is a key AR coactivator in a variety of cells. Yang, J Biol Chem, 277(13):11336-44 (2002); Truica et al, Cancer Res, 60(17):4709-13 (2000). The inventors believed that thiostrepton could inhibit AR activity by limiting access to nuclear β-catenin via FOXM1 depletion. […] As expected, control actin protein was observed primarily in cytoplasmic fraction.

AR = assay: Immunohistochemistry of AR in spinal cord and muscle tissue; assay type: in vivo, rat; conditions: rats, 100 mg/kg per day, four weeks

T1 sequence (P10275 with tags, fused parts or gaps with the stated changes): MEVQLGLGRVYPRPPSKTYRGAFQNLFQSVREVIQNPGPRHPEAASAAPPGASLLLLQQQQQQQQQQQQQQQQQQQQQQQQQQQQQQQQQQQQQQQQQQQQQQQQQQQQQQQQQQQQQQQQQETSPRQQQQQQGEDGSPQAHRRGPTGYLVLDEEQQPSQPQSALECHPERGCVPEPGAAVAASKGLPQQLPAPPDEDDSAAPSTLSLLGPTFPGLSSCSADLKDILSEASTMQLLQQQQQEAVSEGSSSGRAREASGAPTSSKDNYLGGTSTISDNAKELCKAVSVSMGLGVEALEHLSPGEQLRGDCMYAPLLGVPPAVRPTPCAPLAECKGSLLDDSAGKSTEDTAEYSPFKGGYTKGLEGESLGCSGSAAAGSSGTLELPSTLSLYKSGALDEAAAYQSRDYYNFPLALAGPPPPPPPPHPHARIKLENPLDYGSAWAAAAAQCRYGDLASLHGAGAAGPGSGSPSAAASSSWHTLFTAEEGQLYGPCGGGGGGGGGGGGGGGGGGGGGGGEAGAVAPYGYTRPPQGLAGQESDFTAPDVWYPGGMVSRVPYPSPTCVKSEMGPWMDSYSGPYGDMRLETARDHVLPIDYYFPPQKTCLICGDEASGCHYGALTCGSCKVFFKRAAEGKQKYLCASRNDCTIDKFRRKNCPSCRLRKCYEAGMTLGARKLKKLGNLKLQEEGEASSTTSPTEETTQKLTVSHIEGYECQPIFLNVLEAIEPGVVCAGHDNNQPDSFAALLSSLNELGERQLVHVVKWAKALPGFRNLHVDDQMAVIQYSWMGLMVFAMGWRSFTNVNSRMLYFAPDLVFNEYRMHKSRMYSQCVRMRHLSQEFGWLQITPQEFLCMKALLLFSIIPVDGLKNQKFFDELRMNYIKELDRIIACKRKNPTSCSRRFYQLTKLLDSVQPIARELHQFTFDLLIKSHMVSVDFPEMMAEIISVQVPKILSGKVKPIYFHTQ

C=C(NC(=O)C(=C)NC(=O)c1csc(C2=N[C@@H]3c4csc(n4)[C@H]4NC(=O)c5csc(n5)[C@H]([C@](C)(O)[C@@H](C)O)NC(=O)[C@H]5CSC(=N5)/C(=C/C)NC(=O)[C@H]([C@@H](C)O)NC(=O)c5csc(n5)[C@]3(CC2)NC(=O)[C@H](C)NC(=O)C(=C)NC(=O)[C@H](C)NC(=O)[C@H]([C@@H](C)CC)N[C@@H]2C=Cc3c([C@H](C)O)cc(nc3[C@H]2O)C(=O)O[C@@H]4C)n1)C(N)=O [thiostrepton]
inhibition of polyglutamine-expanded AR activity (luciferase) [1]: inhibited | inhibition of AR activity (luciferase) [2]: efficiently inhibited AR activity | androgen-dependent gene transcript levels in spinal cord [3]: decreases in three androgen-dependent genes | FOXM1 levels (Western blot) (FOXM1): slightly decreased | AR expression in striated muscle tissue nuclei (IHC) (AR): not affected | AR levels in spinal cord neurons (IHC) (AR): not affected
